Measurements reported in US20190255042A1, “APPLICATION OF HEDGEHOG PATHWAY INHIBITOR IN TREATING FIBROSIS DISEASES” (IMPACT THERAPEUTICS, INC, priority 2016, published 2019).

Test system: unilateral pulmonary fibrosis model in SD rats
Assay: Prophylactic therapeutic efficacy in unilateral pulmonary fibrosis model in SD rats (bleomycin)
Assay type: in vivo
Parameters: key to Fibrosis score (Ashcraft): Ashcraft semi-quantitative fibrosis score; Evaluation of injury and inflammatory lesions of left lung: Fibrotic lesion edge / Evaluation of injury and inflammatory lesions of left lung: Fibrosis lesion: scale not given here
Conditions: for Evaluation of injury and inflammatory lesions of left lung: Fibrosis lesion / Evaluation of injury and inflammatory lesions of left lung: Fibrotic lesion edge / Fibrosis area (left pulmonary fibrosis) / Fibrosis Score 1-3 (%) / Fibrosis Score 4-8 (%) / Fibrosis score (Ashcraft) / Volume of left lung / Weight of left lung: D15, mean ± sem, n = 8; for Evaluation of injury and inflammatory lesions of left lung: Fibrosis lesion / Evaluation of injury and inflammatory lesions of left lung: Fibrotic lesion edge: HE score; for Fibrosis area (left pulmonary fibrosis): Masson trichrome; for weight of left lung compared with model group: p<0.05
Experimental: 40 male SD rats were randomized into Model group (Group 1, n=8), positive drug group BIBF1120 60 mg/kg/d group (Group 2, n=8), Compound A 5 mg/kg/d group (Group 3, n=8), compound A 10 mg/kg/d group (Group 4, n=8) and Compound A 20 mg/kg/d (Group 5, n=8). On the modeling day, rats were anesthetized and exposed to trachea. Bleomycin was injected into trachea of each group (dosage: 3 mg/kg, volume: 1.0 ml/kg). Oral administration was performed 2 hours after modeling, once a day. On Day 15, all the animals were killed, the left lung was taken, the weight and volume of the left lung were measured, then fixed by formalin, the bronchioles were stained with HE, Masson trichrome. The bronchioles, final bronchiole and small pulmonary artery injury and inflammation invasion were evaluated by semi-quantitative score, and pulmonary fibrosis was evaluated by Ashcraft semi-quantitative score.

[1] = 5 mg/kg/d oral from modeling day
[2] = 10 mg/kg/d oral from modeling day
[3] = 20 mg/kg/d oral from modeling day

CC(C)c1cnc(-c2cc(NC(=O)c3ccc(N4C[C@@H](C)N(C)[C@@H](C)C4)cc3C(F)(F)F)ccc2Cl)[nH]1 [Comp A, N-(3-(5-isopropyl-1H-imidazol-2-yl)-4-chlorophenyl)-2-trifluoromethyl-4-((3S,5R)-3,4,5-trimethylpiperazin-1-yl)benzamide]
Evaluation of injury and inflammatory lesions of left lung: Fibrosis lesion [1]: 7.93 ± 0.16
Evaluation of injury and inflammatory lesions of left lung: Fibrotic lesion edge [1]: 5.93 ± 0.20
Fibrosis area (left pulmonary fibrosis) [1]: 81.64 ± 10.49
Fibrosis Score 1-3 (%) [1]: 62.50 ± 16.69%
Fibrosis Score 4-8 (%) [1]: 37.50 ± 16.69%
Fibrosis score (Ashcraft) [1]: 3.33 ± 0.36
Volume of left lung [1]: 1.38 ± 0.05 cm^3
Weight of left lung [1]: 1.37 ± 0.08 g
Evaluation of injury and inflammatory lesions of left lung: Fibrosis lesion [2]: 6.93 ± 0.21
Evaluation of injury and inflammatory lesions of left lung: Fibrotic lesion edge [2]: 5.45 ± 0.28
Fibrosis area (left pulmonary fibrosis) [2]: 78.84 ± 4.44
Fibrosis Score 1-3 (%) [2]: 68.75 ± 19.59%
Fibrosis Score 4-8 (%) [2]: 31.25 ± 19.59%
Fibrosis score (Ashcraft) [2]: 3.15 ± 0.32
Volume of left lung [2]: 1.29 ± 0.06 cm^3
Weight of left lung [2]: 1.13 ± 0.05 g
Evaluation of injury and inflammatory lesions of left lung: Fibrosis lesion [3]: 7.68 ± 0.31
Evaluation of injury and inflammatory lesions of left lung: Fibrotic lesion edge [3]: 6.00 ± 0.13
Fibrosis area (left pulmonary fibrosis) [3]: 76.37 ± 8.33
Fibrosis Score 1-3 (%) [3]: 71.25 ± 22.95%
Fibrosis Score 4-8 (%) [3]: 28.75 ± 22.95%
Fibrosis score (Ashcraft) [3]: 3.29 ± 0.63
Volume of left lung [3]: 1.21 ± 0.09 cm^3
Weight of left lung [3]: 1.13 ± 0.08 g
injury of terminal bronchioles and pulmonary arterioles compared with model group and Compound A-5 mpk group (10 mpk, fibrosis foci, p<0.001): significantly reduced
weight of left lung compared with model group (10 mpk): significantly lower
weight of left lung compared with model group (20 mpk): significantly lower
degree of pulmonary fibrosis (Ashcraft score) compared with model group (BIBF1120 60 mg/kg/d, Compound A 5, 10, 20 mg/kg/d, p<0.01): significantly alleviated
average score of fibrosis in the entire fibrosis lesion (ashcraft) (BIBF1120 60 mg/kg/d, compound A 5, 10, 20 mg/kg/d): about 3 points
